Measurements taken from patent US20240423942A1, “PHARMACEUTICAL COMPOSITION INCLUDING RETINOIC ACID AND CARBOHYDRATE AND USE THEREOF” (Mastery Biotech CO., LTD., priority 2022, published 2024).

How the values were obtained:
SARS-COV-2 PLpro = SARS-COV-2 PLpro (Severe acute respiratory syndrome coronavirus 2, UniProt P0DTD1); type: biochemical; settings: Example 1; 50 μM; FIG. 2 and Table 2
Procedure: The enzymatic activity of SARS-COV-2 PLpro obtained above was measured by a colorimetry-based peptide cleavage assay, using the 6-mer peptide substrate, FRLKGG-para-nitroanilide (FG6-pNA) (purity 97% by HPLC; GL Biochem Ltd., Shanghai, China). In the cleavage assay, the 6-mer peptide substrate was cleaved at the Gly-pNA bond to release free pNA, which turned the color of the solution to yellow. The enzymatic activity was determined by continuously monitoring the absorbance at 405 nm (A405) using a 96-well microplate spectrophotometer (Epoch™ 2, Biotek) at 30° C.
An enzyme inhibition assay was performed in a 96-well microplate. Each of the wells of the microplate contained a 50 mM phosphate buffer (pH 7.4). SARS-COV-2 PLPro obtained above (0.9 μM) was added into the respective well to form an enzyme solution. […]
20 μL of FG6-pNA (1.2 mM) described above was added into the test mixture of the respective group to initiate the enzyme reaction. […] The enzymatic activity was determined by continuously monitoring the absorbance at 405 nm (A405) using a 96-well microplate spectrophotometer (Epoch™ 2, Biotek). The reaction rate was calculated accordingly, wherein the reaction rate is the slope of the absorbance A405 versus time (seconds) for a total reaction time of 300 seconds.
The inhibition percentage was calculated using the following equation: […]

H460 cancer cell line = assay: In vitro cytotoxicity, Alamar blue cell viability, NCI-H460; type: cell-based; settings: 24 hr
A549 cancer cell line = assay: In vitro cytotoxicity, Alamar blue cell viability, A549; type: cell-based; settings: 24 hr
Huh-7 cancer cell line = assay: In vitro cytotoxicity, Alamar blue cell viability, Huh-7; type: cell-based; settings: 24 hr
AsPC-1 cancer cell line = assay: In vitro cytotoxicity, Alamar blue cell viability, AsPC-1; type: cell-based; settings: 24 hr
HCT-116 cancer cell line = assay: In vitro cytotoxicity, Alamar blue cell viability, HCT-116; type: cell-based; settings: 24 hr
SKOV-3 cancer cell line = assay: In vitro cytotoxicity, Alamar blue cell viability, SK-OV-3; type: cell-based; settings: 24 hr
[1] = test system: MDA-MB-231 cancer cell line; assay: In vitro cytotoxicity, Alamar blue cell viability, MDA-MB-231; type: cell-based; settings: 24 hr
SARS-COV-2 = settings: Example 2; intranasal 0.35 mg/kg twice daily, 3-day treatment; FIG. 3
Source text: Golden Syrian hamsters (aged 5-6 weeks old and having an average weight of about 100 g) were obtained from the National Laboratory Animal Center (Taipei, Taiwan). The hamsters were housed in an animal room under specific-pathogen-free (SPF) conditions commonly applied in the art. Furthermore, water and feed were provided ad libitum for all the hamsters. All the experiments involving the hamsters were consigned to and reviewed and approved by the Institutional Animal Care and Use Committee (IACUC) of Academia Sinica (Taiwan).
The hamsters were infected with SARS-COV-2 (obtained from P3 Lab, the Genomics Research Center, Academia Sinica; WuHan wild type) in phosphate buffered saline (PBS) through intranasal inoculation at 1×10^4 plaque-forming units (PFU) on 12:00 PM so as to establish a SARS-CoV-2 animal model. […]
After the 3-day treatment, the hamsters were sacrificed, and the lungs thereof were collected for live viral load measurement by TCID50 assay in Vero E6 cells. The virus titer was determined in terms of the 50% tissue culture infectious dose (TCID50) using the Reed-Muench method. […]

Q: `CC1=C(/C=C/C(C)=C/C=C/C(C)=C\C(=O)NCCCO[C@@H]2O[C@H](CO)[C@H](O)[C@H](O)[C@H]2O)C(C)(C)CCC1` [Galactose-modified isotretinoin, (2Z,4E,6E,8E)-3,7-Dimethyl-N-(3-(((2R,3R,4S,5R,6R)-3,4,5-Trihydroxy-6-(Hydroxymethyl)Tetrahydro-2H-Pyran-2-Yl)Oxy) Propyl)-9-(2,6,6-Trimethylcyclohex-1-En-1-Yl) Nona-2,4,6,8-Tetraenamide] was tested. Which “inhibition rate compared with Comparative_1 (isotretinoin only)” value (SARS-COV-2 PLpro) did it give?
A: Its value is “significantly higher”.

Q: What about the cell viability (H460 cancer cell line; H460, FIG. 10) of the same molecule?
A: Its cell viability is “significantly reduce”.

Q: What about the IC50 (H460 cancer cell line; Homo sapiens, NCI-H460, Non-small Cell Lung Cancer) of the same molecule?
A: The IC50 was 22.9 µM.

Q: What about the cell viability (A549 cancer cell line; A549, FIG. 9) of the same molecule?
A: The cell viability was “significantly reduce”.

Q: What about the IC50 (A549 cancer cell line; Homo sapiens, A549, Non-small Cell Lung Cancer) of the same molecule?
A: Its IC50 is 21.9 µM.

Q: What about the IC50 (Huh-7 cancer cell line; Homo sapiens, Huh-7, Liver Cancer) of the same molecule?
A: Its IC50 is 77.5 µM.

Q: What about the cell viability (Huh-7 cancer cell line; Huh-7, FIG. 7) of the same molecule?
A: The cell viability was “significantly reduce”.

Q: And the cell viability (AsPC-1 cancer cell line; AsPC-1, FIG. 4)?
A: The cell viability was “significantly reduce”.

Q: And the IC50 (AsPC-1 cancer cell line; Homo sapiens, ASPC1, AsPC-1, Pancreatic Cancer)?
A: The IC50 was 23 µM.

Q: And the cell viability (HCT-116 cancer cell line; HCT-116, FIG. 6)?
A: The cell viability was “significantly reduce”.

Q: What about the IC50 (HCT-116 cancer cell line; Homo sapiens, HCT-116, Colon Cancer) of the same molecule?
A: Its IC50 is 123 µM.

Q: What about the IC50 (SKOV-3 cancer cell line; Homo sapiens, SK-OV-3, Ovarian Cancer) of the same molecule?
A: Its IC50 is 13.8 µM.

Q: What about the cell viability (SKOV-3 cancer cell line; SKOV-3, FIG. 8) of the same molecule?
A: The cell viability was “significantly reduce”.

Q: What about the IC50 ([1]; Homo sapiens, MDA-MB-231, Breast Cancer) of the same molecule?
A: The IC50 was 116 µM.

Q: And the cell viability ([1]; MDA-MB-231, FIG. 5)?
A: The cell viability was “significantly reduce”.

Q: And the “TCID50 (lung virus titer) compared with isotretinoin and liposome-encapsulated isotretinoin” value (SARS-COV-2)?
A: Its value is “significantly lower”.
